Literature values in US20090232916A1, “FOOD PRODUCTS FOR DIABETICS” (priority 2004, published 2009).

Tested on: IGT subjects
Conditions: over a period of three years

## CN(C)C(=N)N=C(N)N [metformin]
  reduction of the risk of progressing from IGT to diabetes: 31%
